Target: T1, CgTD (Corynebacterium glutamicum, UniProt Q04513)
T1 construct: gene ilvA; recombinant, expressed in E. coli BL21(DE3) from pETDuet-1 (pETduet-CgTD)
T1 sequence (Q04513 1-436): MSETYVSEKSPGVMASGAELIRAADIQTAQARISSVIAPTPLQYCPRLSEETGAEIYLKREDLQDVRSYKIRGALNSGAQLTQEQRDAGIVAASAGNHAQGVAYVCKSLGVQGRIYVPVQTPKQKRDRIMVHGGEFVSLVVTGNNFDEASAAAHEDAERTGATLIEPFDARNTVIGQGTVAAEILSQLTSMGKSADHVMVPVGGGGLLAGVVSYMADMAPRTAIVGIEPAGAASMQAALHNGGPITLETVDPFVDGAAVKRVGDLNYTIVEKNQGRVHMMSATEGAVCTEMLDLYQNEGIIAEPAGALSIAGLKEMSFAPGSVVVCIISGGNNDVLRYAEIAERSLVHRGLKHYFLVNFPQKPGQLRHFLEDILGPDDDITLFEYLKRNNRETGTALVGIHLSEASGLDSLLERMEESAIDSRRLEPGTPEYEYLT
Test: TD activity screen of enzyme expressed in E. coli
Conditions: PLP enzyme; deamination to alpha-keto acid 4a

Structure (SMILES) | TD activity screen of enzyme expressed in E. coli
N[C@H](C(=O)O)[C@@H](O)c1ccccc1 [erythro-3a, erythro-ʟ-phenylserine] | only TD from Corynebacterium glutamicum (CgTD) showed activities toward both configurations
N[C@H](C(=O)O)C(O)c1ccccc1 (stereo partly drawn) [threo-3a, threo-ʟ-phenylserine] | the TD activities toward both threo- and erythro-ʟ-phenylserine (threo/erythro-3a) were tested

From publication PMC6145935, “Asymmetric assembly of high-value α-functionalized organic acids using a biocatalytic chiral-group-resetting process” (Nature Communications, 2018)
